Measurements as given in patent US20240076287A1, “SOLID FORMS OF A CDK2 INHIBITOR” (PFIZER INC., priority 2020, published 2024).
Blank lines part the entries; values can stand above or below the molecule they belong to.

Columns and labels:
[1] = slurry stability experiments (solid form by PXRD); format: physicochemical; settings: for Final Form: slurry in 2-propanol/water, Aw 0.9
Method: Slurry experiments were conducted as follows. The indicated starting form of PF-07104091 was transferred to a 2 mL vial. The indicated solvent or solvent mixture was added to obtain a slurry at the specified temperature (Table 14). Additional solids were added as necessary to ensure a sufficiently thick slurry. A magnetic stir bar was added and the vial was tightly capped to prevent solvent loss. The resulting slurry was left to stir at the specified temperature. Aliquots were pulled from the slurry periodically or after a certain duration. Solids were separated from the liquid by centrifuge filtration and the solids were characterized by powder x-ray diffraction. […] (ambient), and 40° C.

[2] = moisture sorption (DVS) study; format: physicochemical

thermodynamic stability of the solid form ([1]; at 4° C., ˜25° C. (ambient), and 40° C.): thermodynamically most stable form
Compound: COCc1cc(C(=O)Nc2cc([C@H]3CC[C@@H](OC(=O)NC(C)C)C3)[nH]n2)n(C)n1 [PF-07104091 monohydrate (Form 3), (1R,3S)-3-[3-({[3-(methoxymethyl)-1-methyl-1H-pyrazol-5-yl]carbonyl}amino)-1H-pyrazol-5-yl]cyclopentyl propan-2-ylcarbamate]

Final Form ([1]; 4 °C): Form 3
Final Form ([1]; ambient): Form 3
Compound: COCc1cc(C(=O)Nc2cc([C@H]3CC[C@@H](OC(=O)NC(C)C)C3)[nH]n2)n(C)n1 [Form 1, (1R,3S)-3-[3-({[3-(methoxymethyl)-1-methyl-1H-pyrazol-5-yl]carbonyl}amino)-1H-pyrazol-5-yl]cyclopentyl propan-2-ylcarbamate]

solid form of the post moisture sorption material ([2]; PXRD after DVS): no change in solid form
mass gain ([2]; at 60% RH): ~0.7%
mass gain ([2]; at 75% RH): ~1%
mass gain ([2]; at 90% RH): ~1.6%
hygroscopicity ([2]; moisture sorption (DVS)): slightly hygroscopic
Compound: COCc1cc(C(=O)Nc2cc([C@H]3CC[C@@H](OC(=O)NC(C)C)C3)[nH]n2)n(C)n1 [PF-07104091 (Form 2), (1R,3S)-3-[3-({[3-(methoxymethyl)-1-methyl-1H-pyrazol-5-yl]carbonyl}amino)-1H-pyrazol-5-yl]cyclopentyl propan-2-ylcarbamate]
